{"source": "paper PMC7381729", "about": "“A new class of PentixaFor- and PentixaTher-based theranostic agents with enhanced CXCR4-targeting efficiency” (Theranostics, 2020)", "key": {"[1]": {"experiment": "Biodistribution in Daudi xenograft bearing mice", "assay_type": "in vivo, mouse", "conditions": "female, CB-17 SCID, mouse, iv, total radioactivity, 1h p.i., means ± SD", "in_short": "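Female CB-17 SCID mice with Daudi xenografts (n=4-5) received 5-10 MBq (0.08-0.11 nmol) ^68Ga- or ^177Lu-labelled ligand i.v.; blocking by coinjected 50 µg AMD3100. Organs counted by γ-counter at 1, 6 and 48 h p.i.; %ID/g (mean ± SD).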"}, "[2]": {"experiment": "Small animal PET imaging in Daudi xenograft bearing mice", "assay_type": "in vivo", "conditions": "CB17 SCID, mouse, iv, total radioactivity, 90 min p.i., dynamic PET, ROI analysis, n=1 per compound", "procedure": "Small aminal PET imaging studies were performed using a Siemens Inveon PET scanner. Animals were anesthetized with isoflurane and injected via the tail vein with 10 to 15 MBq (0.1 nmol) of the respective tracer. Dynamic imaging (n=1 per compound) was performed after on-bed injection for 1.5 h, and static images (n=1 per compound) were acquired at 1 h p.i. with an acquisition time of 15 min. Data analysis was performed using the Inveon Research Workplace software. Images were reconstructed using a 3D ordered-subsets expectation maximum (OSEM3D) algorithm without scanner and attenuation correction. Time-activity curves (Figure 4) were obtained by generating isocontour regions of interest (ROI) for the tumor and the heart content (as a surrogate for blood activity), as well as by defining two spherical ROIs (each 23.4 mm^3) in the thigh area (muscle) and areas of homogenous tracer uptake in the liver, followed by plotting of average activity ± SD per volume in these ROIs over time.  Figure 4 Results from small animal PET imaging using [^68Ga]PentixaFor (top row), [^68Ga]DOTA-r-a-ABA-CPCR4 (middle row) and [^68Ga]DOTA-r-a-ABA-iodoCPCR4 (bottom row) in Daudi xenograft bearing CB17 SCID mice. Images on the left (MIP) were obtained by static imaging (1h p.i., n=1), the time activity curves (TAC) on the right were acquired by dynamic PET imaging (0-90 min p.i., n=1)."}}, "note": "Where two headings read alike, the source gives them in different places. Where a SMILES comes first, the peptide text is derived from it. Side-chain parts run from the residue outwards. [ ]: non-standard residue; d: D form. The star is where a group is joined. DOTA = O=C(O)CN1CCN(CC(=O)O)CCN(CC(=O)*)CCN(CC(=O)O)CC1; 2Nal = N[C@@H](Cc1ccc2ccccc2c1)C(=O)O; dNMeOrn = CN[C@H](CCCN)C(=O)O; 4Abz = Nc1ccc(C(=O)O)cc1", "data": [{"compound": "C[C@@H](NC(=O)[C@@H](CCCNC(=N)N)NC(=O)CN1CCN(CC(=O)O)CCN(CC(=O)O)CCN(CC(=O)O)CC1)C(=O)Nc1ccc(C(=O)NCCC[C@@H]2C(=O)N[C@@H](CCCNC(=N)N)C(=O)N[C@@H](Cc3ccc4ccccc4c3)C(=O)NCC(=O)N[C@H](Cc3ccc(O)cc3)C(=O)N2C)cc1", "note": "[[^68Ga]DOTA-r-a-ABA-CPCR4, metal not drawn] (cyclo([2Nal]G[dY][dNMeOrn]([4Abz-dA-dR-DOTA])R))", "values": [{"measurement": "tissue uptake at 1 h", "setting": "[1]; adrenals, tracer only, i.v., γ-counter, n=4-5 (68Ga: n=4), read-out: Biodistribution adrenals", "result": "1.9 ± 1.14", "unit": "%ID/g"}, {"measurement": "tissue uptake at 1 h", "setting": "[1]; adrenals, with AMD3100, 50 µg per animal, coinjected (CXCR4 competition), coinjection of 50 µg AMD3100/animal, n=3, read-out: Biodistribution adrenals, competition with AMD3100", "result": "1.02 ± 0.27", "unit": "%ID/g"}, {"measurement": "tissue uptake at 1 h", "setting": "[1]; blood, with AMD3100, 50 µg per animal, coinjected (CXCR4 competition), coinjection of 50 µg AMD3100/animal, n=3, read-out: Biodistribution blood, competition with AMD3100", "result": "2.98 ± 0.57", "unit": "%ID/g"}, {"measurement": "tissue uptake at 1 h", "setting": "[1]; colon, tracer only, i.v., γ-counter, n=4-5 (68Ga: n=4), read-out: Biodistribution colon", "result": "0.67 ± 0.13", "unit": "%ID/g"}, {"measurement": "tissue uptake at 1 h", "setting": "[1]; colon, with AMD3100, 50 µg per animal, coinjected (CXCR4 competition), coinjection of 50 µg AMD3100/animal, n=3, read-out: Biodistribution colon, competition with AMD3100", "result": "0.47 ± 0.09", "unit": "%ID/g"}, {"measurement": "tissue uptake at 1 h", "setting": "[1]; femur, tracer only, i.v., γ-counter, n=4-5 (68Ga: n=4), read-out: Biodistribution femur", "result": "1.27 ± 0.32", "unit": "%ID/g"}, {"measurement": "tissue uptake at 1 h", "setting": "[1]; femur, with AMD3100, 50 µg per animal, coinjected (CXCR4 competition), coinjection of 50 µg AMD3100/animal, n=3, read-out: Biodistribution femur, competition with AMD3100", "result": "0.74 ± 0.11", "unit": "%ID/g"}, {"measurement": "tissue uptake at 1 h", "setting": "[1]; heart, tracer only, i.v., γ-counter, n=4-5 (68Ga: n=4), read-out: Biodistribution heart", "result": "1.51 ± 0.25", "unit": "%ID/g"}, {"measurement": "tissue uptake at 1 h", "setting": "[1]; heart, with AMD3100, 50 µg per animal, coinjected (CXCR4 competition), coinjection of 50 µg AMD3100/animal, n=3, read-out: Biodistribution heart, competition with AMD3100", "result": "1.37 ± 0.33", "unit": "%ID/g"}, {"measurement": "tissue uptake at 1 h", "setting": "[1]; kidney, tracer only, i.v., γ-counter, n=4-5 (68Ga: n=4), read-out: Biodistribution kidney", "result": "11.5 ± 3.58", "unit": "%ID/g"}, {"measurement": "tissue uptake at 1 h", "setting": "[1]; kidney, with AMD3100, 50 µg per animal, coinjected (CXCR4 competition), coinjection of 50 µg AMD3100/animal, n=3, read-out: Biodistribution kidney, competition with AMD3100", "result": "7.16 ± 1.62", "unit": "%ID/g"}, {"measurement": "tissue uptake at 1 h", "setting": "[1]; liver, with AMD3100, 50 µg per animal, coinjected (CXCR4 competition), coinjection of 50 µg AMD3100/animal, n=3, read-out: Biodistribution liver, competition with AMD3100", "result": "4.62 ± 0.56", "unit": "%ID/g"}, {"measurement": "tissue uptake at 1 h", "setting": "[1]; lung, tracer only, i.v., γ-counter, n=4-5 (68Ga: n=4), read-out: Biodistribution lung", "result": "3.15 ± 0.5", "unit": "%ID/g"}, {"measurement": "tissue uptake at 1 h", "setting": "[1]; lung, with AMD3100, 50 µg per animal, coinjected (CXCR4 competition), coinjection of 50 µg AMD3100/animal, n=3, read-out: Biodistribution lung, competition with AMD3100", "result": "3.12 ± 0.57", "unit": "%ID/g"}, {"measurement": "tissue uptake at 1 h", "setting": "[1]; muscle, tracer only, i.v., γ-counter, n=4-5 (68Ga: n=4), read-out: Biodistribution muscle", "result": "0.45 ± 0.05", "unit": "%ID/g"}, {"measurement": "tissue uptake at 1 h", "setting": "[1]; muscle, with AMD3100, 50 µg per animal, coinjected (CXCR4 competition), coinjection of 50 µg AMD3100/animal, n=3, read-out: Biodistribution muscle, competition with AMD3100", "result": "0.4 ± 0.11", "unit": "%ID/g"}, {"measurement": "tissue uptake at 1 h", "setting": "[1]; pancreas, tracer only, i.v., γ-counter, n=4-5 (68Ga: n=4), read-out: Biodistribution pancreas", "result": "0.68 ± 0.01", "unit": "%ID/g"}, {"measurement": "tissue uptake at 1 h", "setting": "[1]; pancreas, with AMD3100, 50 µg per animal, coinjected (CXCR4 competition), coinjection of 50 µg AMD3100/animal, n=3, read-out: Biodistribution pancreas, competition with AMD3100", "result": "0.69 ± 0.07", "unit": "%ID/g"}, {"measurement": "tissue uptake at 1 h", "setting": "[1]; small intestine, tracer only, i.v., γ-counter, n=4-5 (68Ga: n=4), read-out: Biodistribution small intestine", "result": "0.94 ± 0.13", "unit": "%ID/g"}, {"measurement": "tissue uptake at 1 h", "setting": "[1]; small intestine, with AMD3100, 50 µg per animal, coinjected (CXCR4 competition), coinjection of 50 µg AMD3100/animal, n=3, read-out: Biodistribution small intestine, competition with AMD3100", "result": "0.94 ± 0.31", "unit": "%ID/g"}, {"measurement": "tissue uptake at 1 h", "setting": "[1]; spleen, tracer only, i.v., γ-counter, n=4-5 (68Ga: n=4), read-out: Biodistribution spleen", "result": "2.01 ± 0.19", "unit": "%ID/g"}, {"measurement": "tissue uptake at 1 h", "setting": "[1]; spleen, with AMD3100, 50 µg per animal, coinjected (CXCR4 competition), coinjection of 50 µg AMD3100/animal, n=3, read-out: Biodistribution spleen, competition with AMD3100", "result": "2.38 ± 0.23", "unit": "%ID/g"}, {"measurement": "tissue uptake at 1 h", "setting": "[1]; stomach, tracer only, i.v., γ-counter, n=4-5 (68Ga: n=4), read-out: Biodistribution stomach", "result": "1.2 ± 0.1", "unit": "%ID/g"}, {"measurement": "tissue uptake at 1 h", "setting": "[1]; stomach, with AMD3100, 50 µg per animal, coinjected (CXCR4 competition), coinjection of 50 µg AMD3100/animal, n=3, read-out: Biodistribution stomach, competition with AMD3100", "result": "0.97 ± 0.32", "unit": "%ID/g"}, {"measurement": "tissue uptake at 1 h", "setting": "[1]; tumor (Daudi xenograft), tracer only, i.v., γ-counter, n=4-5 (68Ga: n=4), read-out: Biodistribution tumor (Daudi xenograft)", "result": "11.7 ± 1.31", "unit": "%ID/g"}, {"measurement": "tissue uptake at 1 h", "setting": "[1]; tumor (Daudi xenograft), with AMD3100, 50 µg per animal, coinjected (CXCR4 competition), coinjection of 50 µg AMD3100/animal, n=3, read-out: Biodistribution tumor, competition with AMD3100", "result": "2.52 ± 0.36", "unit": "%ID/g"}, {"measurement": "tissue uptake per volume at 1.5 h", "setting": "[2]; kidney, read-out: Kidney uptake in PET", "result": "9.4 ± 0.2", "unit": "%ID/mL"}, {"measurement": "tissue uptake per volume at 1.5 h", "setting": "[2]; liver, average ± SD per volume in ROI, read-out: Liver uptake in PET", "result": "6 ± 0.2", "unit": "%ID/mL"}, {"measurement": "tissue uptake per volume at 1.5 h", "setting": "[2]; tumor (Daudi xenograft), Daudi xenograft, read-out: Tumor accumulation in PET", "result": "12 ± 0.7", "unit": "%ID/mL"}]}]}
